Here are results for five compounds from patent EP4268819A1 (priority 2022, dated 2023).

The subject of series [1] is icSARS-CoV-2-mNG. Format: cell-based, SARS-CoV-2.
Series [2] has as its system icSARS-CoV-2-mNG. The experiment in a line: IC50 calculation with icSARS-CoV-2-mNG in Calu-3 cells (mNG+/Hoechst+ infection rate). To be noted: ic-SARS-CoV-2-mNG in Calu-3 cells; for Therapeutic range: CC50/IC50 (CTG): CC50 by CTG; for Therapeutic range: CC50/IC50 (IncuCyte): CC50 by IncuCyte; for Therapeutic range: CC50/IC50 (MTT): CC50 by MTT.
Series [3] concerns Calu-3 cells. The experiment in a line: Toxicity by staining of the nuclei (Hoechst+ cell count) in the icSARS-CoV-2-mNG IC50 experiment. To be noted: Calu3 cells in the icSARS-CoV-2-mNG IC50 experiment.
The subject of another series is Huh7.5 cells. The experiment in a line: CC50 calculation, MTT assay, Huh7.5. The format is cell-based. To be noted: 72h, 4320 min. Here is the method:
(§1) The cells were treated with drug candidates at the indicated concentrations. Negative control (non-treated), DMSO control and positive control (100% DMSO treated) were added, and plates were then stored at 37 °C, 5 % CO2 for 72h. The old cell media was then discarded, and cells were incubated for 3 h at 37°C, 5% CO2 with 90 µl phenolred-free DMEM-Media and 10 µl of a 5 mg/ml MTT solution per well (#ab146345 Abcam). Afterwards Media was discarded carefully, and Formazan crystals were dissolved on a shaker with 100 µl MTT buffer/well (0.04 N HCI in isopropanol) for 10 minutes. Absorption levels at 570 nm and 650 nm wavelength were measured by Berthold TriStar2 S Multimode Reader and values were normalized to non-treated cells. CC50 was calculated as the half-maximal cytotoxic dose via GraphPad Prism 9 using four-parameter nonlinear regression.
(§2) Absorption levels at 570 nm and 650 nm wavelength were measured and values were normalized to non-treated cells. CC50 was calculated as the half-maximal cytotoxic dose via GraphPad Prism 9 using four-parameter nonlinear regression.
(§3) They now expanded the tests and used MTT assay, which is a procedure used to calculate the redox activity at the mitochondrial membrane of cells and the commercial cell titer glow assay (Promega) to measure cellular ATP. Cell lines tested were the ones used for our antiviral assay, i.e. Calu-3, Caco-2 and Huh7.5 cells.

Series [4] is described as follows: in vitro. The format is cell-based. Particulars: human. Here is the method:
The old cell media was then discarded, and cells were washed with PBS. 35 µl DMEM-Media and 35 µl CellTiterGlow® reagent (#G7571, Promega) were added and incubated for 2 minutes on an orbital shaker protected from light. Afterwards plates were incubated for 10 minutes without shaking to stabilize the luminescent signal. 50 µl of the supernatant was transferred to a white 96 well measure plate and measured by Berthold TriStar2 S Multimode Reader. The background signal was determined by the luminescent signal of the positive control subtracted from the values used for analysis. The data was then normalized to the non-treated control. CC50 was calculated as the half-maximal cytotoxic dose via GraphPad Prism 9 using four-parameter nonlinear regression.
Luminescent signals were measured by Berthold TriStar2 S Multimode Reader. The data was then normalized to the non-treated control. CC50 was calculated as the half-maximal cytotoxic dose via GraphPad Prism 9 using four-parameter nonlinear regression.

Series [5] deals with DENV type 2 reporter virus.
Series [6] concerns Calu-3 cells.
Method: (§4) Calu-3 (40.000/well), Huh7.5 (10.000/well) and CaCo2 (10.000/well) cells were seeded in 96-well plates in DMEM-Media. The cells were treated with the drug compounds at the indicated concentrations, negative control (non-treated), DMSO control and positive control (50% DMSO treated) were added, and plates were then stored in the IncuCyte® at 37 °C, 5 % CO2 for 72h measuring every 3 hours cell confluency via phase channel with 10x objective. For Analysis IncuCyte® S3 Software was used.
(§5) Plates were then stored in the IncuCyte® measuring every 3 hours cell confluency.
A short description of series [7]: CC50 calculation, MTT assay, Calu-3. Format: cell-based. Particulars: human, Calu-3 cells. Here is the method: as §1, §2, §3
A short description of series [8]: in vitro. Format: cell-based. Particulars: human, caco-2; IncuCyte; cell line not specified; read-out: level of growth inhibition (live-cell imaging, growth curves). The source says: For Analysis IncuCyte® S3 Software was used.
Series [9] in a line: CC50 calculation, MTT assay, Huh7.5. To be noted: human, Huh7.5 cells. Format: cell-based. Here is the method:
as §1, §2, §3

Series [10] is described as follows: Cell viability via live cell imaging (IncuCyte), Huh7.5. Particulars: human, huh7.5 cells.
Method: as §4, §5
Series [11] concerns DENV type 2 reporter virus. The experiment in a line: microbe, parasite or virus in culture. Particulars: Dengue virus, Huh7.5, 24 h.
A short description of series [12]: in vitro. To be noted: human, calu-3 cells, CC50 (IncuCyte), confluency every 3 hours for 72h.
Method: as §4, §5
Another series has as its system CaCo2 and Calu3 cells. To be noted: screening at 50, 10, 2 µM.
For a further series, the system named is ZIKA. Particulars: against ZIKA; reported, with a low therapeutic index; cited from earlier work.
For another series, the system named is DENV. To be noted: against DENV; reported, with a low therapeutic index; cited from earlier work.
[13] abbreviates: Calu3 and Caco2 cells, 24h pre-treatment, […], 50, 10, 2 µM (Atpenin A5 10, 2, 0.4 µM).

Like-named read-outs stand apart in the source and are kept apart here. Bounds are passed on as bounds.

For `O[C@H]1[C@H](O)[C@@H](O)[C@H](O)[C@@H](O)[C@@H]1O` [Scyllo-Inositol, Scyllo-inositol], the “SARS-CoV-2 infection of the cell lines (infection rate mNG+/Hoechst+ cells)” value (from here on “SARS-CoV-2 infection of the cell lines”) in the series on icSARS-CoV-2-mNG [1] (setting [13]) is “did not show any activity”.
In the case of `[H]/N=C(/N)N/C(=N/[H])NCCc1ccccc1` [Phenformin], the “Therapeutic range: CC50/IC50 (CTG)” value was “CTG: 1306.4” with icSARS-CoV-2-mNG [2] and “CTG: 109.2” in series [5] (human, huh7.5 cells). For the same compound, the “Therapeutic range: CC50/IC50 (IncuCyte)” value in the series with icSARS-CoV-2-mNG [2] was “IncuCyte: 867.1”; in [5] (human, huh7.5 cells) it was “IncuCyte: 59.9”. Further, the “Therapeutic range: CC50/IC50 (MTT)” value with icSARS-CoV-2-mNG [2] is “MTT: 876.3”; in series [5] (human, huh7.5 cells), “MTT: 3.3”. In addition, the “toxicity (staining of the nuclei, cell count)” value in the series with Calu-3 cells [3] is recorded as “without any toxicity”. For the same compound, the CC50 was 61.2 µM in the series on Huh7.5 cells and 1500 µM in the series on Calu-3 cells [6] (human, 72h). Further, the CC50 at 72 h in the series “in vitro [4]” (caco-2), in “in vitro [4]” (calu-3 cells) and in “in vitro [4]” (huh7.5 cells) was above 2 µM throughout. Besides, in the series on icSARS-CoV-2-mNG [1], the “SARS-CoV-2 infection of the cell lines” value is listed as “inhibited SARS-CoV-2 infection of the cell lines in a dose-dependent manner”.
`COc1[nH]c(=O)c(C(=O)[C@@H](C)C[C@H](C)[C@@H](Cl)CCl)c(O)c1OC` [Atpenin A5, atpenin A5]: the “Therapeutic range: CC50/IC50 (CTG)” value in the series with icSARS-CoV-2-mNG [2] is “CTG: 1.72”; in series [5] (Dengue Virus in Huh7.5 cells, CC50 by CTG), “CTG: 229.5”. The “Therapeutic range: CC50/IC50 (IncuCyte)” value with icSARS-CoV-2-mNG [2] is on record as “IncuCyte: > 320”; in series [5] (Dengue Virus in Huh7.5 cells, CC50 by IncuCyte) it was “IncuCyte: 240.7”. Besides, the “Therapeutic range: CC50/IC50 (MTT)” value in the series on icSARS-CoV-2-mNG [2] is “MTT: 24”; in series [5] (Dengue Virus in Huh7.5 cells, CC50 by MTT), “MTT: 375.2”. Further, the CC50 at 72 h is 1.2 µM in series [7]; above 60 µM in the series “in vitro [8]”; 101 µM in series [9]; 0.86 µM in “in vitro [4]” (Calu-3 cells, 72h, read-out: CC50 (CTG)); 62 µM in “in vitro [4]” (Huh7.5 cells, 72h, read-out: CC50 (CTG)); 65 µM in [10]. The compound also showed a CC50 at 72 h in the series “in vitro [12]” above 160 µM. In addition, in series [11], the 50% inhibitory concentration (IC50) came to 0.27 µM. For the same compound, in the series on Calu-3 cells [6] (read-out: CC50 (IncuCyte), confluency every 3 hours for 72h, 4320 min), the CC50 is above 80 µM. In the series with icSARS-CoV-2-mNG [1] (setting [13]), the “SARS-CoV-2 infection of the cell lines” value is reported as “inhibited SARS-CoV-2 infection of the cell lines in a dose-dependent manner”.
In the case of `CC(C)Cc1nn(C)c(=O)c2c(SCCCO)n(Cc3cccc4ccccc34)cc12` [SR13800], in the series with CaCo2 and Calu3 cells, the “toxicity (cell viability by Hoechst staining of the nucleus)” value is given as “toxic”.
On to `CN(C)C(=N)N=C(N)N` [Metformin], for which the “toxicity (staining of the nuclei, cell count)” value in the series on Calu-3 cells [3] is given as “without any cytotoxicity”. Also, the antiviral activity entry in the series with ZIKA and with DENV was “mM range” each time.

What is called IC50 is the concentration that inhibits the measured activity by half. Read a low IC50 as greater potency.
